This test can be described thus: Sensory evaluation of chewing gums (quality and time-intensity of sweetness). It is filed as in vivo. The note with it: in chewing gum, versus aspartame or sucralose. The procedure: Chewing gums sweetened individually with monatin, aspartame and sucralose were prepared in stick gum format of mint flavor. The gums were prepared to be iso-sweet and evaluated for quality of sweet taste and time-intensity of sweetness delivery.
A standard method of manufacture was adopted for all three gum formulations, as described.
The method of gum manufacture was as follows: • Pre-warm the gum base to 40-45° C. and then add to Z-blade mixer and mix • Sieve sorbitol powder • Remove a portion of the sorbitol, disperse sweetener in that portion and mix thoroughly • Return sweetener/sorbitol mix to remaining bulk of sorbitol powder and mix thoroughly • Mix lycasin and glycerol into a bowl and pre-heat to 50° C. • Add sorbitol powder to the Z-blade mixer containing the gum base • Add lycasin/glycerol and flavor to the Z-blade and mix for 20 minutes • Remove gum from Z-blade mixer • Roll to a thickness of 1.5 mm using a mechanical roller • Dust with talc in the ratio 3 g talc to 100 g gum • Cut into sticks measuring 19 mm×73 mm • Wrap individual sticks in foil Sensory Evaluation
Chewing gum compositions were evaluated by a panel of trained sensory assessors (n 4), all very experienced in the formal sensory evaluation of chewing gums, including an evaluation for time/intensity parameters. Qualitative and temporal characteristics of the gum's flavor and sweetness were evaluated.

Results on one compound are retold here after patent US20050170041A1, “Chewing gum compositions comprising monatin and methods for making same” (Cargill, Inc., priority 2003, published 2005).

As to `NC(CC(O)(Cc1c[nH]c2ccccc12)C(=O)O)C(=O)O` (stereo not shown) [Monatin, 2-hydroxy-2-(indol-3-ylmethyl)-4-aminoglutaric acid], the “time/intensity profile for sweetness” value is recorded as “very clearly superior to either aspartame or sucralose”.
